Test results reported in ChEMBL document CHEMBL5365531, “Structure-Activity Relationship Studies of SARS-CoV-2 Main Protease Inhibitors Containing 4-Fluorobenzothiazole-2-carbonyl Moieties” (J Med Chem, 2023).
pEC50: −log10 of the molar value.

Experiments:
SARS-CoV-2 [1] = experiment: Antiviral activity against SARS-CoV-2 JPN/TY/WK-521 infected in Vero E6 cells preincubated with cells for 1 day followed by viral infection and measured after 3 days by qRT-PCR analysis; assay type: functional, organism-based; settings: Severe acute respiratory syndrome coronavirus 2, JPN/TY/WK-521, Vero C1008
[2] = Cytotoxicity against African green monkey Vero E6 cells incubated for 3 days by WST-8 assay; assay type: toxicity, cell-based, Vero C1008; settings: chlorocebus sabaeus, time 3 day
SARS-CoV-2 [3] = experiment: Antiviral activity against SARS-CoV-2 JPN/TY/WK-521 infected in Vero E6 cells assessed as fold change preincubated with cells for 1 day followed by viral infection and measured after 3 days by qRT-PCR analysis relative to 7-fluoro-N-((S)-1-(((S)-1-(4-fluorobenzo[d]thiazol-2-yl)-1-oxo-3-((S)-2-oxopyrrolidin-3-yl)propan-2-yl)amino)-3,3-dimethyl-1-oxobutan-2-yl)-4-methoxy-1H-indole-2-carboxamide; assay type: functional, Severe acute respiratory syndrome coronavirus 2; settings: time 4 day
SARS-CoV-2 [4] = experiment: Antiviral activity against SARS-CoV-2 infected in Vero E6 cells assessed as fold change preincubated with cells for 1 day followed by viral infection and measured after 3 days by qRT-PCR analysis relative to YH-53; assay type: functional, Severe acute respiratory syndrome coronavirus 2; settings: time 4 day
SARS-CoV-2 [5] = experiment: Antiviral activity against SARS-CoV-2 infected in Vero E6 cells preincubated with cells for 1 day followed by viral infection and measured after 3 days by qRT-PCR analysis; assay type: functional, organism-based; settings: Severe acute respiratory syndrome coronavirus 2, Vero C1008
SARS-CoV-2 [6] = experiment: Antiviral activity against SARS-CoV-2 JPN/TY/WK-521 infected in Vero E6 cells assessed as fold change preincubated with cells for 1 day followed by viral infection and measured after 3 days by qRT-PCR analysis relative to TKB245; assay type: functional, Severe acute respiratory syndrome coronavirus 2; settings: time 4 day
MT2 = experiment: Cytotoxicity against human MT2 cells assessed as reduction in cell viability at 3 uM incubated for 12 days by CCK-8 assay; assay type: toxicity, cell-based; settings: mt2, 288 h, time 12 day
MOLT-4 = experiment: Cytotoxicity against human MOLT-4 cells assessed as reduction in cell viability at 3 uM incubated for 12 days by CCK-8 assay; assay type: toxicity, cell-based; settings: molt-4, 288 h, time 12 day
PBMC = experiment: Cytotoxicity against human PBMC cells assessed as reduction in cell viability at 3 uM incubated for 12 days by CCK-8 assay; assay type: toxicity, cell-based; settings: 288 h, time 12 day

In the case of `CC(C)(C)[C@H](NC(=O)C(F)(F)F)C(=O)N1C[C@H]2[C@@H]([C@H]1C(=O)N[C@@H](C[C@@H]1CCNC1=O)C(=O)c1nc3ccccc3s1)C2(C)C`, the pEC50 (SARS-CoV-2 [1]) was 7.82, the CC50 at 72 h [2] was greater than 100 µM and the “fold change (FC)” value (SARS-CoV-2 [3]) was 0.071.
For `COc1cccc2[nH]c(C(=O)N3C[C@H]4[C@@H]([C@H]3C(=O)N[C@@H](C[C@@H]3CCNC3=O)C(=O)c3nc5ccccc5s3)C4(C)C)cc12`, the pEC50 (SARS-CoV-2 [1]) was 5.60, the CC50 at 72 h [2] was greater than 100 µM and the “fold change (FC)” value (SARS-CoV-2 [3]) was 11.
With `COc1ccc(F)c2[nH]c(C(=O)N[C@H](C(=S)N[C@@H](C[C@@H]3CCNC3=O)C(=O)c3nc4c(F)cccc4s3)C(C)(C)C)cc12` the “fold change (FC)” value (SARS-CoV-2 [4]) was 0.16, the CC50 at 72 h [2] was greater than 100 µM and the pEC50 (SARS-CoV-2 [5]) was 6.47.
For `CC(C)(C)[C@H](NC(=O)C(F)(F)F)C(=O)N1C[C@H]2[C@@H]([C@H]1C(=O)N[C@@H](C[C@@H]1CCNC1=O)C(=O)c1nc3c(Br)cccc3s1)C2(C)C`, the pEC50 (SARS-CoV-2 [1]) was 7.20, the “fold change (FC)” value (SARS-CoV-2 [6]) was 2.9 and the CC50 at 72 h [2] was greater than 100 µM.
For `CC(C)(C)[C@H](NC(=O)C(F)(F)F)C(=O)N1C[C@H]2[C@@H]([C@H]1C(=O)N[C@@H](C[C@@H]1CCNC1=O)C(=O)c1nc3c(Cl)cccc3s1)C2(C)C`, the pEC50 (SARS-CoV-2 [1]) was 7.72, the “fold change (FC)” value (SARS-CoV-2 [6]) was 0.86 and the CC50 at 72 h [2] was greater than 100 µM.
With `CC(C)(F)[C@H](NC(=O)C(F)(F)F)C(=O)N1C[C@H]2[C@@H]([C@H]1C(=O)N[C@@H](C[C@@H]1CCNC1=O)C(=O)c1nc3c(F)cccc3s1)C2(C)C` the pEC50 (SARS-CoV-2 [1]) was 6.60, the “fold change (FC)” value (SARS-CoV-2 [6]) was 21 and the CC50 at 72 h [2] was greater than 100 µM.
In the case of `COc1cccc2[nH]c(C(=O)N[C@H](C(=O)N[C@@H](C[C@@H]3CCNC3=O)C(=O)c3nc4ccccc4s3)C(C)(C)C)cc12`, the CC50 at 72 h [2] was greater than 100 µM and the pEC50 (SARS-CoV-2 [5]) was 5.66.
For `CC1(C)[C@@H]2[C@@H](C(=O)N[C@@H](C[C@@H]3CCNC3=O)C(=O)c3nc4c(F)cccc4s3)N(C(=O)c3cc4c(F)ccc(F)c4[nH]3)C[C@@H]21`, the pEC50 (SARS-CoV-2 [1]) was 6.12, the CC50 at 72 h [2] was greater than 100 µM and the “fold change (FC)” value (SARS-CoV-2 [3]) was 3.1.
With `CC(C)(C)[C@H](NC(=O)C(F)(F)F)C(=O)NC1(C(=O)N[C@@H](C[C@@H]2CCNC2=O)C(=O)c2nc3c(F)cccc3s2)CCC(F)(F)C1` (some centres not stated) the pEC50 (SARS-CoV-2 [1]) was 5.62, the “fold change (FC)” value (SARS-CoV-2 [6]) was 90 and the CC50 at 72 h [2] was greater than 100 µM.
For `COc1ccc(F)c2[nH]c(C(=O)N3C[C@H]4[C@@H]([C@H]3C(=O)N[C@@H](C[C@@H]3CCNC3=O)C(=O)c3nc5c(F)cccc5s3)C4(C)C)cc12`, the pEC50 (SARS-CoV-2 [1]) was 6.25, the CC50 at 72 h [2] was greater than 100 µM and the “fold change (FC)” value (SARS-CoV-2 [3]) was 2.7.
For `CC(C)C[C@H](NC(=O)[C@@H](NC(=O)C(F)(F)F)C(C)(C)C)C(=O)N[C@@H](C[C@@H]1CCNC1=O)C(=O)c1nc2c(F)cccc2s1`, the pEC50 (SARS-CoV-2 [1]) was 6.44, the CC50 at 72 h [2] was greater than 100 µM and the “fold change (FC)” value (SARS-CoV-2 [3]) was 1.
For `CC1(C)[C@@H]2[C@@H](C(=O)N[C@@H](C[C@@H]3CCNC3=O)C(=O)c3nc4c(F)cccc4s3)N(C(=O)[C@H](CCC(F)(F)F)NC(=O)C(F)(F)F)C[C@@H]21`, the pEC50 (SARS-CoV-2 [1]) was 6.23, the “fold change (FC)” value (SARS-CoV-2 [6]) was 14 and the CC50 at 72 h [2] was greater than 100 µM.
With `COc1ccc(F)c2[nH]c(C(=O)N[C@H](C(=O)N[C@@H](C[C@@H]3CCNC3=O)C(=O)c3nc4c(F)cccc4s3)C(C)(C)C)cc12` the “fold change (FC)” value (SARS-CoV-2 [4]) was 0.13, the CC50 at 72 h [2] was greater than 100 µM and the pEC50 (SARS-CoV-2 [5]) was 6.54.
For `CC1(C)[C@@H]2[C@@H](C(=O)N[C@@H](C[C@@H]3CCNC3=O)C(=O)c3nc4c(F)cccc4s3)N(C(=O)[C@H](CC(F)(F)F)NC(=O)C(F)(F)F)C[C@@H]21`, the pEC50 (SARS-CoV-2 [1]) was 5.55, the “fold change (FC)” value (SARS-CoV-2 [6]) was 34 and the CC50 at 72 h [2] was greater than 100 µM.
For `CC(C)(C)[C@H](NC(=O)C(F)(F)F)C(=O)N1C[C@@H]2CCC[C@@H]2[C@H]1C(=O)N[C@@H](C[C@@H]1CCNC1=O)C(=O)c1nc2c(F)cccc2s1`, the pEC50 (SARS-CoV-2 [1]) was 7.02, the “fold change (FC)” value (SARS-CoV-2 [6]) was 1.6 and the CC50 at 72 h [2] was greater than 100 µM.
For `CC(C)C(=O)OC[C@H]1O[C@@H](n2ccc(NO)nc2=O)[C@H](O)[C@@H]1O` [MOLNUPIRAVIR], the Activity (MT2) was “Toxic”, the Activity (MOLT-4) was “Non-Toxic” and the Activity (PBMC) was “Non-Toxic”.
